Reference: ChEMBL document CHEMBL3259726, “Identification of a new series of potent diphenol HSP90 inhibitors by fragment merging and structure-based optimization” (Bioorg Med Chem Lett, 2014)
pIC50: −log10 of the molar value.

Experiments:
[1] = molecular target: T1, Heat shock protein HSP 90-alpha (Homo sapiens, UniProt P07900); assay: biochemical
Description: Displacement of GM-BODIPY from human full length HSP90 alpha expressed in baculovirus-infected Sf9 cells after 16 hrs by fluorescence polarization assay

CYP3A4 = CYP3A4 (Homo sapiens, UniProt P08684); assay: Inhibition of CYP3A4 in human liver microsomes using midazolam or testosterone as substrate at 10 uM; type: ADME; settings: probe midazolam or testosterone
CYP2C19 = CYP2C19 (Homo sapiens, UniProt P33261); assay: Inhibition of CYP2C19 in human liver microsomes using mephenytoin as substrate at 10 uM; type: ADME; settings: probe mephenytoin
[2] = Growth inhibition of human NCI-H3122 cells after 72 hrs by spectrophotometer analysis; type: functional; settings: NCI-H3122, 72 h
CYP1A2 = molecular target: T2, CYP1A2 (Homo sapiens, UniProt P05177); assay: Inhibition of CYP1A2 in human liver microsomes using phenacetin as substrate at 10 uM; type: ADME; settings: probe phenacetin
T2 sequence (P05177 whole entry): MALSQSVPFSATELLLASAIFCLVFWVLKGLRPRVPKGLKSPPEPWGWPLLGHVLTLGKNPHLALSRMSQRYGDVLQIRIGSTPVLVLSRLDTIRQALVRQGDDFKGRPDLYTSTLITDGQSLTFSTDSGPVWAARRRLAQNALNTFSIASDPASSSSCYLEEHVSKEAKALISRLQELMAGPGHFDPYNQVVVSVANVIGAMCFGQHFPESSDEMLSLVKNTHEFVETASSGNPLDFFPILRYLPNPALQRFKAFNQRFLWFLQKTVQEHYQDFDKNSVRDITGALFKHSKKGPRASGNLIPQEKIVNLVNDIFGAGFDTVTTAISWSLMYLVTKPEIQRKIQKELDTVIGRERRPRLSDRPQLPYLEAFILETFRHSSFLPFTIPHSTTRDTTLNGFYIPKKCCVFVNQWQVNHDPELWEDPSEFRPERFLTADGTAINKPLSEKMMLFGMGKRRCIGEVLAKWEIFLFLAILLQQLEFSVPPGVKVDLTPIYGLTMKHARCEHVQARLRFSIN

A549 = assay: Growth inhibition of human A549 cells after 72 hrs by spectrophotometer analysis; type: functional; settings: A549, 72 h
[3] = Growth inhibition of human BT474 cells after 72 hrs by spectrophotometer analysis; type: functional; settings: BT-474, 72 h
CYP2C9 = CYP2C9 (Homo sapiens, UniProt P11712); assay: Inhibition of CYP2C9 in human liver microsomes using diclofenac as substrate at 10 uM; type: ADME; settings: probe diclofenac
CYP2D6 = CYP2D6 (Homo sapiens, UniProt P10635); assay: Inhibition of CYP2D6 in human liver microsomes using dextromethorphan as substrate at 10 uM; type: ADME; settings: probe dextromethorphan
[4] = Intrinsic clearance in rat liver microsomes at 1 uM after 5 mins by LC-MS/MS analysis; type: ADME; settings: read-out: CLH
[5] = Retention time of the compound; type: physicochemical
HCT-116 = assay: Growth inhibition of human HCT116 cells after 72 hrs by spectrophotometer analysis; type: functional; settings: HCT-116, 72 h
[6] = molecular target: T1, Heat shock protein HSP 90-alpha; assay: Displacement of GM-BODIPY from human full length HSP90 alpha expressed in baculovirus-infected Sf9 cells at 5 uM after 16 hrs by fluorescence polarization assay
Cytochrome P450 2C19 = Cytochrome P450 2C19 (Homo sapiens, UniProt P33261); assay: Time-dependent inhibition of CYP2C19 in human liver microsomes using mephenytoin as substrate at 10 uM; type: ADME; settings: TDE = time-dependent effect
[7] = Intrinsic clearance in human liver microsomes at 1 uM after 5 mins by LC-MS/MS analysis; type: ADME; settings: read-out: CLH
[8] = molecular target: T1, Heat shock protein HSP 90-alpha; assay: Displacement of GM-BODIPY from human full length HSP90 alpha expressed in baculovirus-infected Sf9 cells at 1 uM after 16 hrs by fluorescence polarization assay

Chain of CYP2C19 (P33261 whole entry): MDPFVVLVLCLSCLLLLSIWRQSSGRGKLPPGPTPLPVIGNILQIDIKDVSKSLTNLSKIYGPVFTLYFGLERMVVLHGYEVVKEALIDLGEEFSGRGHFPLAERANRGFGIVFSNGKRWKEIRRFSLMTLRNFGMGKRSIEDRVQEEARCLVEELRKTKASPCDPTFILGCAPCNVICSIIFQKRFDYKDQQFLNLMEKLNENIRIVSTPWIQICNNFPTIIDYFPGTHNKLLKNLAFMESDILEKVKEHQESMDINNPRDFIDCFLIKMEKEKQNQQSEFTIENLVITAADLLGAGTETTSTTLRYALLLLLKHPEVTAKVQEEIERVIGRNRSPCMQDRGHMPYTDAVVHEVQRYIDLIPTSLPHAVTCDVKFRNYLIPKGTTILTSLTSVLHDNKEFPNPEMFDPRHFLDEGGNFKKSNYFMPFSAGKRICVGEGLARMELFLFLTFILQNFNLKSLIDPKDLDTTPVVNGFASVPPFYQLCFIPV
Chain of CYP2D6 (P10635 whole entry): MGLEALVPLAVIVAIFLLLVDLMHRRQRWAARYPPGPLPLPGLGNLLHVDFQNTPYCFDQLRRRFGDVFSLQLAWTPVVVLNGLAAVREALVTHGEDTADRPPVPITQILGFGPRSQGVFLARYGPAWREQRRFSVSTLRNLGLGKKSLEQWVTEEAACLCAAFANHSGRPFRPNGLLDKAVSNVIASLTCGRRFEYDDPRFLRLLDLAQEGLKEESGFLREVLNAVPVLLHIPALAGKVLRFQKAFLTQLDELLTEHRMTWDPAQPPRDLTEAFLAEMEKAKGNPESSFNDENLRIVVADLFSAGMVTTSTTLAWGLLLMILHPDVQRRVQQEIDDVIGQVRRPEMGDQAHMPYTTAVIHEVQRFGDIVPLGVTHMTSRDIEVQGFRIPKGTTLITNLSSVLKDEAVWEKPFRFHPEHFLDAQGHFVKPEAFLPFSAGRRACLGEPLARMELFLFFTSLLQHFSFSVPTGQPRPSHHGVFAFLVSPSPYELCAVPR
Chain of CYP2C9 (P11712 whole entry): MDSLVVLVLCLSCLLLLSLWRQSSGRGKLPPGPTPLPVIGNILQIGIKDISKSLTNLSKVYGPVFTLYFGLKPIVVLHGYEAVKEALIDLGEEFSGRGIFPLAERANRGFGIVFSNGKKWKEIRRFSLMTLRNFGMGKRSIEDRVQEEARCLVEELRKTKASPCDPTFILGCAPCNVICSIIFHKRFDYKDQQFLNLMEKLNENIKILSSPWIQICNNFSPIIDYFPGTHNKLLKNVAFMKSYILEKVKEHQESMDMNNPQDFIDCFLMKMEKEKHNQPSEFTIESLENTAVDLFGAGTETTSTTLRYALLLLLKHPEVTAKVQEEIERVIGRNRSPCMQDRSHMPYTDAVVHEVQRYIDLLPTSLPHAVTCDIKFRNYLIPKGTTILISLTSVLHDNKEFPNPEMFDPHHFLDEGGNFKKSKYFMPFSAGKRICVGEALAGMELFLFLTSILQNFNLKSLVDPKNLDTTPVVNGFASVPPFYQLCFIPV
Chain of CYP3A4 (P08684 whole entry): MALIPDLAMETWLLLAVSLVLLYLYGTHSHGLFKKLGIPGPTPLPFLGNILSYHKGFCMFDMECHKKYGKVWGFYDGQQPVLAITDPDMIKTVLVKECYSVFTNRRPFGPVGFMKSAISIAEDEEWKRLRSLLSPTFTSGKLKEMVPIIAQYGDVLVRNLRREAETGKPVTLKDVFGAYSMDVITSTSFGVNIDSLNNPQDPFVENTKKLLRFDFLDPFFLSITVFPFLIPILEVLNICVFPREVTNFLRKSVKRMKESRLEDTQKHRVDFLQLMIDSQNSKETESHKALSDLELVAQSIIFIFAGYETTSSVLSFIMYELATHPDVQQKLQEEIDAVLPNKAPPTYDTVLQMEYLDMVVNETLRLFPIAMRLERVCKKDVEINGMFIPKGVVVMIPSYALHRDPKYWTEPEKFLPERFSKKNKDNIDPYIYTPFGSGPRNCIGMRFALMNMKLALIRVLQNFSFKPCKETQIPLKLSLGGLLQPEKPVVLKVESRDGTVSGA
Chain of Cytochrome P450 2C19 (P33261 whole entry): as the sequence (P33261 whole entry) above

| Structure (SMILES) | pIC50 [1] | Retention_time [5] | inhibition at 10 µM (CYP3A4) | inhibition at 10 µM (CYP2C19) | inhibition at 10 µM (CYP1A2) | inhibition at 10 µM (CYP2C9) | inhibition at 10 µM (CYP2D6) | microsomal CLint at 1 µM [4] | further results |
| --- | --- | --- | --- | --- | --- | --- | --- | --- | --- |
| O=C(c1cc(-n2ccc3c(Br)cccc32)c(O)cc1O)N1Cc2ccccc2C1 | 7.15 | 3.8 min | 22% | 70% | 34% | 54% | 19% | 49 µL/min/mg | GI50 [2]: 9.67 µM; GI50 (A549): 21 µM; GI50 [3]: 8.52 µM; GI50 (HCT-116): 12.3 µM |
| CN1CCN(C(=O)c2cc(-c3nnc4ccc(Br)cn34)c(O)cc2O)CC1 |  | 1.86 min |  |  |  |  |  |  | inhibition [6]: 8.8% |
| COC(=O)c1cccc2c1ccn2-c1cc(C(=O)N2Cc3ccccc3C2)c(O)cc1O | 6.89 | 3.32 min |  |  |  |  |  |  |  |
| O=C(c1cc(-n2ccc3ccccc32)c(O)cc1O)N1Cc2ccccc2C1 | 7.42 | 3.56 min | 17% | 60% | 52% | 73% | 14% | 25 µL/min/mg | GI50 [2]: 7.53 µM; GI50 (A549): 14.3 µM; GI50 [3]: 7.25 µM; GI50 (HCT-116): 10.1 µM; microsomal CLint at 1 µM [7]: 13 µL/min/mg |
| O=C(c1cc(Nc2ccc(Cl)cc2Cl)c(O)cc1O)N1Cc2ccccc2C1 | 6.72 | 3.87 min | 33% | 23% | 40% | 73% | 5% | 16 µL/min/mg | GI50 [2]: 10.1 µM; GI50 (A549): 24.2 µM; GI50 [3]: 6.31 µM; GI50 (HCT-116): 10.6 µM |
| O=C(c1cc(-n2ccc3cnccc32)c(O)cc1O)N1Cc2ccccc2C1 | 6.60 | 2.45 min |  |  |  |  |  |  |  |
| Cc1ccc(Nc2cc(C(=O)N3Cc4ccccc4C3)c(O)cc2O)cc1 | 7.15 | 3.29 min | 38% | 58% | 61% | 75% | 7% |  |  |
| CNC(=O)c1cccc2c1ccn2-c1cc(C(=O)N2Cc3ccccc3C2)c(O)cc1O | 6.21 | 2.74 min |  |  |  |  |  |  |  |
| O=C(c1cc(-n2ccc3ccccc32)c(O)cc1O)N1CCc2ccccc2C1 | 6.89 | 3.54 min |  |  |  |  |  |  |  |
| Cc1ccc2c(ccn2-c2cc(C(=O)N3Cc4ccccc4C3)c(O)cc2O)c1 | 7.42 | 3.68 min | 4% | 63% | 28% | 68% | 7% | 42 µL/min/mg | GI50 [2]: 7.53 µM; GI50 (A549): 11.1 µM; GI50 [3]: 7.07 µM; GI50 (HCT-116): 8.6 µM |
| O=C(c1cc(-c2nnc3ccc(Br)cn23)c(O)cc1O)N1CCc2ccccc2C1 |  | 2.76 min |  |  |  |  |  |  | inhibition [6]: 18.7% |
| O=C(c1cc(-n2ccc3ccccc32)c(O)cc1O)N1CCc2sccc2C1 | 6.48 | 3.45 min |  |  |  |  |  |  |  |
| O=C(O)Cc1cn(-c2cc(C(=O)N3Cc4ccccc4C3)c(O)cc2O)c2ccccc12 |  | 2.97 min |  |  |  |  |  |  | inhibition [8]: 14.1% |

Now from value to compound, other results behind:

| pIC50 [1] | Retention_time [5] | Structure (SMILES) | inhibition at 10 µM (CYP3A4) | inhibition at 10 µM (CYP2C19) | inhibition at 10 µM (CYP1A2) | inhibition at 10 µM (CYP2C9) | inhibition at 10 µM (CYP2D6) | microsomal CLint at 1 µM [4] | further results |
| --- | --- | --- | --- | --- | --- | --- | --- | --- | --- |
| 7.41 | 3.45 min | O=C(c1cc(-n2ccc3c([N+](=O)[O-])cccc32)c(O)cc1O)N1Cc2ccccc2C1 | 8% | 89% | 47% | 74% | 50% | 6 µL/min/mg | inhibition (INH) (Cytochrome P450 2C19): tde; microsomal CLint at 1 µM [7]: 22 µL/min/mg |
|  | 3.04 min | COc1ccc2c(c1)c(CCNC(C)=O)cn2-c1cc(C(=O)N2Cc3ccccc3C2)c(O)cc1O |  |  |  |  |  |  | inhibition [8]: 56.9% |
| 7.11 | 3.8 min | O=C(c1cc(-n2ccc3cc(Br)ccc32)c(O)cc1O)N1Cc2ccccc2C1 | 13% | 71% | 48% | 78% | 32% | 16 µL/min/mg | microsomal CLint at 1 µM [7]: 18 µL/min/mg |
| 5.82 | 2.69 min | COc1ccc2c(c1)c(CCN)cn2-c1cc(C(=O)N2Cc3ccccc3C2)c(O)cc1O |  |  |  |  |  |  |  |
| 6.89 | 2.4 min | O=C(c1cc(-n2ccc3ncccc32)c(O)cc1O)N1Cc2ccccc2C1 |  |  |  |  |  |  |  |
| 6.20 | 2.35 min | CN1CCN(C(=O)c2cc(-n3ccc4ccccc43)c(O)cc2O)CC1 |  |  |  |  |  |  |  |
| 7.68 | 3.12 min | O=C(c1cc(Nc2ccccc2)c(O)cc1O)N1Cc2ccccc2C1 | 19% | 52% | 72% | 68% | 22% | 12 µL/min/mg | microsomal CLint at 1 µM [7]: 2 µL/min/mg |
